Results: patent publication US20070213339A1 (Bayer Pharmaceuticals Corporation, priority 2004, published 2007)

Tested on: Colo205 human colon carcinoma cell line
Test: In vitro tumor cell proliferation assay (MTS, CellTiter 96 Aqueous One Solution)
Type: cell-based
Conditions: COLO 205, Colo205 cells, 72 hours compound exposure, MTS absorbance at 490 nm, read-out: IC50 (concentration of test compound required to inhibit proliferation of 50% of the cells)
Procedure: In Vitro Tumor Cell Proliferation Assay
The adherent H460 human non-small cell lung carcinoma and Colo205 human colon carcinoma cell lines were purchased from the American Type and Culture Collection (ATCC, Manassas, Va.) and maintained in RPMI-1640 growth media supplemented with 10% heat inactivated fetal bovine serum (Gibco, Invitrogen Corp. Grand Island, N.Y.). At 37° C. in a humidified atmosphere of 5% CO2.
The CellTiter 960 Aqueous One Solution kit, MTS, (Promega, Madison, Wis.) was used to measure proliferation of tumor cell lines in vitro. This method monitors the bioreduction of a tetrazolium dye as a measure of cell viability. On Day 0, exponentially growing cells were trypsinized, resuspended in RPMI-1640 growth media supplemented with 10% FCS, 100 u/ml of penicillin G and 100 ug/ml of streptomycin sulfate, and seeded at 2000 cells per well into 96 well microtiter plates. Cells were incubated overnight in a humidified atmosphere of 5% CO2 at 37° C. On Day 1, serial dilutions of compounds were prepared at 2× the finial assay concentration. One hundred microliters of 2× solution was added to test wells in duplicate and control wells received no test compound. The final drug concentration ranged from 0 to 10-20 um in a 5 point dose-response curve. Cells were incubated in the presence of test compounds in a humidified atmosphere of 5% CO2 at 37° C. for 72 hours. After 72 hours of compound exposure, 40 ul of Promega CellTiter 960 Aqueous One Solution was added to each well and absorbance at 490 n-M was measured using a multi-well plate reader. Percent inhibition of proliferation was calculated using the following formula: 100×(1−Absorbancetreated−Background/(Absorbancecontrol−Background)
Absorbancetreated=absorbance at 490 nm in test wells, cells with test compound
Absorbancecontrol=absorbance at 490 nm in control wells, cells with no test compound
Background=absorbance 490 nm in wells containing media and no cells
The concentration of test compound required to inhibit proliferation of 50% of the cells (IC50) was determined by linear regression analysis.
Representative compounds of the invention were tested in the above-described Colo205 human colon carcinoma cell line in vitro assay and found to inhibit human colon carcinoma cell proliferation, and are summarized as follows: […]

Compound | IC50 [nM]
CCN(CC)Cc1ccc(-n2cc(C(=O)O)c(=O)c3cc(F)c(N4CCN(c5ncccn5)CC4)c(OC)c32)cc1 [Example 106, 1-{4-[(diethylamino)methyl]phenyl}-6-fluoro-8-methoxy-4-oxo-7-(4-pyrimidin-2-ylpiperazin-1-yl)-1,4-dihydroquinoline-3-carboxylic acid] | < 500
COc1c(N2CCN(c3ncccn3)CC2)c(F)cc2c(=O)c(C(=O)O)cn(-c3ccc(CN(C)C)cc3)c12 [Example 96, 1-{4-[(dimethylamino)methyl]phenyl}-6-fluoro-8-methoxy-4-oxo-7-(4-pyrimidin-2-ylpiperazin-1-yl)-1,4-dihydroquinoline-3-carboxylic acid] | < 500
CCN(CC)Cc1ccc(-n2cc(C(=O)O)c(=O)c3cc(F)c(N4CCN(c5ccccc5C#N)CC4)c(OC(F)(F)Cl)c32)cc1 [Example 162, 8-[chloro(difluoro)methoxy]-7-[4-(2-cyanophenyl)piperazin-1-yl]-1-{4-[(diethylamino)methyl]phenyl}-6-fluoro-4-oxo-1,4-dihydroquinoline-3-carboxylic acid] | < 500
CCN(CC)Cc1ccc(-n2cc(C(=O)O)c(=O)c3cc(F)c(N4CCN(c5ncccc5C#N)CC4)c(OC(F)(F)Cl)c32)cc1 [Example 161, 8-[chloro(difluoro)methoxy]-7-[4-(3-cyanopyridin-2-yl)piperazin-1-yl]-1-{4-[(diethylamino)methyl]phenyl}-6-fluoro-4-oxo-1,4-dihydroquinoline-3-carboxylic acid] | < 500
C[C@H]1CCCCN1Cc1ccc(-n2cc(C(=O)O)c(=O)c3cc(F)c(N4CCN(c5ncccn5)CC4)c(OC(F)(F)F)c32)cc1 [Example 139, 6-fluoro-1-(4-{[(2S)-2-methylpiperidin-1-yl]methyl}phenyl)-4-oxo-7-(4-pyrimidin-2-ylpiperazin-1-yl)-8-(trifluoromethoxy)-1,4-dihydroquinoline-3-carboxylic acid] | < 500
Cc1ccc(N2CCN(c3c(F)cc4c(=O)c(C(=O)O)cn(-c5ccc(CN6CCCC6)cc5)c4c3OC(F)(F)Cl)CC2)c(C)c1 [Example 150, 8-[chloro(difluoro)methoxy]-7-[4-(2,4-dimethylphenyl)piperazin-1-yl]-6-fluoro-4-oxo-1-[4-(pyrrolidin-1-ylmethyl)phenyl]-1,4-dihydroquinoline-3-carboxylic acid] | 500 to 2000
COc1c(N2CCN(c3ccc(C#N)cc3)CC2)c(F)cc2c(=O)c(C(=O)O)cn(-c3ccc(CN4CCCCC4)cc3)c12 [Example 192, 7-[4-(4-cyanophenyl)-piperazine-1-yl]-6-fluoro-8-methoxy-4-oxo-1-(4-piperidin-1-ylmethyl-phenyl)-1,4-dihydroquinoline-3-carboxylic acid] | < 500
COc1c(N2CCN(c3ccc(Cl)cc3)CC2)c(F)cc2c(=O)c(C(=O)O)cn(-c3ccc(CN4CCCCC4)cc3)c12 [Example 90, 7-[4-(4-chlorophenyl)piperazin-1-yl]-6-fluoro-8-methoxy-4-oxo-1-[4-(piperidin-1-ylmethyl)phenyl]-1,4-dihydroquinoline-3-carboxylic acid] | < 500
COc1c(N2CCN(c3cccc(F)c3)CC2)c(F)cc2c(=O)c(C(=O)O)cn(-c3ccc(CN4CCCC4)cc3)c12 [Example 85, 6-fluoro-7-[4-(3-fluorophenyl)piperazin-1-yl]-8-methoxy-4-oxo-1-[4-(pyrrolidin-1-ylmethyl)phenyl]-1,4-dihydroquinoline-3-carboxylic acid] | < 500
CC1CCC(C)N1Cc1ccc(-n2cc(C(=O)O)c(=O)c3cc(F)c(N4CCN(c5ccccn5)CC4)c(Cl)c32)cc1 (stereo not shown) [Example 19, 8-chloro-1-{4-[(2,5-dimethylpyrrolidin-1-yl)methyl]phenyl}-6-fluoro-4-oxo-7-(4-pyridin-2-ylpiperazin-1-yl)-1,4-dihydroquinoline-3-carboxylic acid] | < 500
COc1c(N2CCN(c3ccc(F)cc3)CC2)c(F)cc2c(=O)c(C(=O)O)cn(-c3ccc(CN(C)C)cc3)c12 [Example 93, 1-{4-[(dimethylamino)methyl]phenyl}-6-fluoro-7-[4-(4-fluorophenyl)piperazin-1-yl]-8-methoxy-4-oxo-1,4-dihydroquinoline-3-carboxylic acid] | < 500
COc1c(N2CCN(c3ccc(C#N)cc3)CC2)c(F)cc2c(=O)c(C(=O)O)cn(-c3ccc(CN(C)C)cc3)c12 [Example 102, 7-[4-(4-cyanophenyl)piperazin-1-yl]-1-{4-[(dimethylamino)methyl]phenyl}-6-fluoro-8-methoxy-4-oxo-1,4-dihydroquinoline-3-carboxylic acid] | < 500
COc1c(N2CCN(c3ccccc3C#N)CC2)c(F)cc2c(=O)c(C(=O)O)cn(-c3ccc(CN4CCCC4)cc3)c12 [Example 81, 7-[4-(2-cyanophenyl)piperazin-1-yl]-6-fluoro-8-methoxy-4-oxo-1-[4-(pyrrolidin-1-ylmethyl)phenyl]-1,4-dihydroquinoline-3-carboxylic acid] | 500 to 2000
O=C(O)c1cn(-c2ccc(CN3CCCC3)cc2)c2c(OC(F)(F)F)c(N3CCN(c4ccccn4)CC3)c(F)cc2c1=O [Example 124, 6-fluoro-4-oxo-7-(4-pyridin-2-yl-piperazin-1-yl)-1-[4-(pyrrolidin-1-ylmethyl)phenyl]-8-(trifluoromethoxy)-1,4-dihydroquinoline-3-carboxylic acid] | < 500
COc1c(N2CCN(c3ccc([N+](=O)[O-])cc3F)CC2)c(F)cc2c(=O)c(C(=O)O)cn(-c3ccc(CN4CCCC4)cc3)c12 [Example 87, 6-fluoro-7-[4-(2-fluoro-4-nitrophenyl)piperazin-1-yl]-8-methoxy-4-oxo-1-[4-(pyrrolidin-1-ylmethyl)phenyl]-1,4-dihydroquinoline-3-carboxylic acid] | 500 to 2000
COc1ccccc1N1CCN(c2c(F)cc3c(=O)c(C(=O)O)cn(-c4ccc(CN(C)C)cc4)c3c2OC)CC1 [Example 99, 1-{4-[(dimethylamino)methyl]phenyl}-6-fluoro-8-methoxy-7-[4-(2-methoxyphenyl)piperazin-1-yl]-4-oxo-1,4-dihydroquinoline-3-carboxylic acid] | 500 to 2000
COc1ccccc1N1CCN(c2c(F)cc3c(=O)c(C(=O)O)cn(-c4ccc(CN5CCCC5)cc4)c3c2OC)CC1 [Example 83, 6-fluoro-8-methoxy-7-[4-(2-methoxyphenyl)-piperazin-1-yl]-4-oxo-1-[4-(pyrrolidin-1-ylmethyl)phenyl]-1,4-dihydroquinoline-3-carboxylic acid] | 500 to 2000
COc1c(N2CCN(c3ccc(F)cc3)CC2)c(F)cc2c(=O)c(C(=O)O)cn(-c3ccc(CN4CCCC4)cc3)c12 [Example 74, 6-fluoro-7-[4-(4-fluorophenyl)piperazin-1-yl]-8-methoxy-4-oxo-1-[4-(pyrrolidin-1-ylmethyl)phenyl]-1,4-dihydroquinoline-3-carboxylic acid] | < 500
COC[C@H]1CCCN1Cc1ccc(-n2cc(C(=O)O)c(=O)c3cc(F)c(N4CCN(c5ccc(F)cc5)CC4)c(Cl)c32)cc1 [Example 23, 8-chloro-6-fluoro-7-[4-(4-fluorophenyl)-piperazin-1-yl]-1-(4-{[(2R)-2-(methoxymethyl)pyrrolidin-1-yl]methyl}phenyl)-4-oxo-1,4-dihydroquinoline-3-carboxylic acid] | < 500
COc1c(N2CCN(c3ccc(C(F)(F)F)cc3)CC2)c(F)cc2c(=O)c(C(=O)O)cn(-c3ccc(CN(C)C)cc3)c12 [Example 100, 1-{4-[(dimethylamino)methyl]phenyl}-6-fluoro-8-methoxy-4-oxo-7-{4-[4-(trifluoromethyl)phenyl]piperazin-1-yl}-1,4-dihydroquinoline-3-carboxylic acid] | 2000 to 20000
COc1c(N2CCN(c3ccc(F)cc3F)CC2)c(F)cc2c(=O)c(C(=O)O)cn(-c3ccc(CN4CCCC4)cc3)c12 [Example 76, 7-[4-(2,4-difluorophenyl)piperazin-1-yl]-6-fluoro-8-methoxy-4-oxo-1-[4-(pyrrolidin-1-ylmethyl)phenyl]-1,4-dihydroquinoline-3-carboxylic acid] | 500 to 2000
CCN(CC)Cc1ccc(-n2cc(C(=O)O)c(=O)c3cc(F)c(N4CCN(c5ccc(F)cc5F)CC4)c(OC(F)(F)F)c32)cc1 [Example 137, 1-{4-[(diethylamino)methyl]phenyl}-7-[4-(2,4-difluorophenyl)piperazin-1-yl]-6-fluoro-4-oxo-8-(trifluoromethoxy)-1,4-dihydroquinoline-3-carboxylic acid] | < 500
